Tested on: IMQ-induced psoriasis in mice
Experiment: Imiquimod-induced psoriasis model in mice, PASI scoring of back skin inflammation
Format: in vivo, Balb/c mice
Text: As already explained, psoriasis is a chronic inflammatory skin disorder. It occurs when the immune system mistakes the skin cells as a pathogen, and sends out faulty signals that speed up the proliferation of skin cells. Imiquimod (IMQ) is a potent immune activator that induces and exacerbates psoriasis when applied topically. Daily application of IMQ on mouse back skin induces inflamed scaly skin lesions resembling plaque type psoriasis. IMQ-induced psoriasis in mice has been long used as a model for human psoriasis.
The efficacy of oral administration of a FABP4-inhibitor to treat psoriasis in the IMQ-induced model in mice was tested.
The test was carried out using Balb/c mice (Envigo RMS (Israel) Ltd), average (±SD) body weight at study initiation was 18.2±0.81 g. Animals were fed ad libitum a commercial rodent diet (Teklad Certified Global 18% Protein Diet, Harlan cat #2018SC). Animals had free access to sterilized and acidified drinking water (pH between 2.5 and 3.5).
The tests included six groups of 3-10 mice per group, as follows: • one naïve (no IMQ) group; • one Vehicle control group, the vehicle formulation being 10% 1-methyl-2-pyrrolidone and 5% Cremophor EL in water for injection (WFI); • one treated group that received Cortisone acetate as a positive control—one tablet (25 mg each, Rekah Pharm) was triturated with a mortar. The powder was dissolved in 2.5 ml WFI yielding 10 mg/ml. The compound was administrated per-os at 12.5 mg/kg BW (body weight) mouse of the compound once daily for six days starting the first day of IMQ application (Day 1); and • three treated groups that received BMS (i.e. Test Item) at three doses—5, 15 and 30 mg/kg. BMS powder (Cayman Chemical) was dissolved in ethanol to create a 30 mg/ml solution. This stock solution was diluted in the Vehicle to create three different concentrations 0.5, 1.5 and 3 mg/ml. A new aqueous solution was prepared in each day. BMS was administrated per-os once daily for six days starting the first day of IMQ application (Day 1).
IMQ-induction: A daily topical dose of 62.5 mg of commercially available IMQ cream (5%) (Aldara; 3M Pharmaceuticals) was applied to animals from all the groups except for the naïve group on the shaved back for six consecutive days, translated to a daily dose of 3.125 mg of the active compound.
Experiment conditions: All animals except for the naïve group received IMQ cream (Aldara™ 5% cream, #3 Pharmaceuticals) applied on the back skin daily for six consecutive days starting on Day 1 (˜60 mg/mouse). The Test Item, Vehicle and Cortisone acetate were administered per-os daily for 6 days. During the study morbidity and mortality, body weight (BW), clinical signs, and Psoriasis Area and Severity Index (PASI) scoring were performed and representative pictures were taken. The animals were sacrificed on Day 9.
Scoring was performed by a trained observer in a “blinded” way, i.e., being unaware of the treatment. To score the severity of inflammation of the back skin, the clinical PASI scoring was employed. Erythema, scaling, and thickening were scored independently on a scale from 0 to 4: 0, none; 1, slight; 2, moderate; 3, marked; 4, very marked. The cumulative score (erythema plus scaling plus thickening), PASI scoring, served as a measure of the severity of inflammation (scale 0-12).

[1] = 15 mg/kg per-os once daily for six days
[2] = BMS treated groups (5, 15 and 30 mg/kg per-os), Day 7

CCc1c(-c2ccccc2)c(-c2ccccc2)nn1-c1ccccc1-c1cccc(OCC(=O)O)c1 [BMS, 2-[[2′-(5-ethyl-3,4-diphenyl-1H-pyrazol-1-yl)[1,1′-biphenyl]-3-yl]oxy]-acetic acid]
erythema severity score, comparison of doses [1]: best results | scaling severity score, comparison of doses [1]: best results | skin thickness severity score, comparison of doses [1]: best results | severity of skin inflammation (PASI scoring) (BMS treated groups (5, 15 and 30 mg/kg per-os once daily for six days), Day 7): significant amelioration | erythema severity score [2]: significant amelioration | scaling severity score [2]: significant amelioration | skin thickness severity score [2]: significant amelioration | impact on the inflammation severity, comparison of doses (middle dose 15 mg/kg per-os once daily for six days): highest impact
